The record followed here is PMC10119282, “Molecular characterization of AIFM2/FSP1 inhibition by iFSP1-like molecules” (Cell Death & Disease, 2023).

For the assay, the target named is T1, hFSP1 WT (Homo sapiens, UniProt Q9BRQ8).
T1 construct: HisSUMO (cleaved yes); made in house; host or cells: E. coli BL21
T1 sequence (Q9BRQ8 1-373): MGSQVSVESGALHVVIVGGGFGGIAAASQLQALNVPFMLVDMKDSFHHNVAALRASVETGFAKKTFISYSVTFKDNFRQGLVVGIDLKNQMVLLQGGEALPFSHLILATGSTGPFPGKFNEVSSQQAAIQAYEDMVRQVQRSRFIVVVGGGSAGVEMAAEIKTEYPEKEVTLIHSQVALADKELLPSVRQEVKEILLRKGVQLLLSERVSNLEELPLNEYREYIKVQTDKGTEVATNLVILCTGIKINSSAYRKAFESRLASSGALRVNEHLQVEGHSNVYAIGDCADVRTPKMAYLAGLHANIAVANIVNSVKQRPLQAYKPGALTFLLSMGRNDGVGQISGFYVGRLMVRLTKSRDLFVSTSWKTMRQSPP
Briefly: Competition MST against pre-formed complex of hFSP1 WT and FSP1-Tracer. Format: binding. The procedure: FSP1 (human isoform 1, UniProt Q9BRQ8-1) WT (hFSP1 WT) and F360L (hFSP1 F360L) were expressed in E.coli BL21 as HisSUMO fusion protein. Cells were grown in lysogeny broth medium at 18 °C and induced with 0.5 mM isopropyl-β-thiogalactoside at a cell density A600 of 0.6. Cells were collected after overnight expression by centrifugation, resuspended in lysis buffer ([…], 50 mM Tris-HCl pH 8, 1 mM TCEP, 20 mM imidazole, protease inhibitor, DNase) and lysed by sonication. Cell debris was removed by centrifugation (30,000 × g) at 4 °C for 30 min, after which an IMAC purification was performed. Briefly, a HisTrap crude FF (5 mL) column was equilibrated to lysis buffer, lysates were loaded via the sample pump and the column was then washed with 50 mL lysis buffer. During the elution with a gradient to 100% IMAC elution buffer (300 mM NaCl, 50 mM Tris-HCl pH 8, 1 mM TCEP, 400 mM imidazole) over 100 mL, 5 mL fractions were collected. The pooled fractions were dialysed overnight in the presence of SenP2 SUMO protease at a ratio of 40:1 FSP1:SenP2. Afterwards, a reverse IMAC purification was performed on a HisTrap crude FF (5 mL) column. IMAC eluates were analysed by SDS PAGE and concentrated to 15 mL (hFSP1 WT) and 5 mL (hFSP1 F360L), respectively. […] Pure fractions were pooled (C12—D11 for hFSP1 WT and C7—D4 for hFSP1 F360L), analysed by SDS-PAGE (Supplementary Fig. 4) and concentrated to 5.8 mL at 285.9 µM (hFSP1 WT) and 1.2 mL at 269.5 µM (FSP1 F360L), flash frozen in liquid N2 and stored at −80 °C.
An MST buffer consisting of 1× phosphate-buffered saline (PBS; 137 mM NaCl, 2.7 mM KCl, 10 mM Na2HPO4, 1.8 mM KH2PO4, pH 7.4) with 2 mM reduced L-Glutathione (GSH, Sigma Aldrich, product number G4251) and 0.05% (v/v) Tween 20 (ITW Reagents, molecular biology grade, product number A4974) was used for all MST measurements. […] KD values were determined by applying a Hill-fit to a plot of Fnorm vs. hFSP1 WT/F360L concentration. […]

Structures are written as SMILES.

Usually Ki stands for the dissociation constant of the complex between target and ligand, obtained from inhibition or displacement. Higher therefore signals a looser hold on the target. For the setting “hFSP1 WT 5 µM and FSP1-Tracer 5 nM pre-formed complex”, `Cc1ccc(-c2c(C#N)c(N)n3c(nc4ccccc43)c2C#N)cc1` [iFSP1] came in with a Ki of 61.6 nM. In addition, the “higher binding affinity to hFSP1 than NADH” value (iFSP1 Ki versus NADH Ki) was determined as 7.4 fold.
